The experiment deals with Gastrin-releasing peptide receptor (Homo sapiens, UniProt P30550). The experiment can be described thus: BB2 Receptor Antagonistic Activity. The procedure:
A BB2 receptor binding test was carried out using a membrane sample prepared from a human prostate cancer-derived PC-3 cell. The PC-3 cell was cultured using an RPMI-1640 medium containing 5% fetal bovine serum, and then a membrane sample was prepared by the following methods. The cells detached by a trypsin treatment were added with a 50 mM Tris-HCl buffer (pH 7.4, containing 0.2 mg/ml trypsin inhibitor and 0.2 mg/ml benzamidine), and homogenized by Polytron. The cell suspension was centrifuged at 1,500 rpm for 10 minutes, and the supernatant thus obtained was subjected to 1 hour of ultracentrifugation at 37,000×g. The precipitate was suspended in the aforementioned buffer to a concentration of 0.4 mg protein/ml, and stored at −80° C.The BB2 receptor binding test was carried out by the following method, and the receptor antagonistic activity of a compound to be tested was calculated. […] Non-specific binding was measured using 1 μM of bombesin. […] The radioactivity on the filter was measured using a microplate scintillation counter (Top Count, Perkin-Elmer Co., Ltd.).

SMILES strings stand for the structures.

Chain of Gastrin-releasing peptide receptor (P30550 whole entry): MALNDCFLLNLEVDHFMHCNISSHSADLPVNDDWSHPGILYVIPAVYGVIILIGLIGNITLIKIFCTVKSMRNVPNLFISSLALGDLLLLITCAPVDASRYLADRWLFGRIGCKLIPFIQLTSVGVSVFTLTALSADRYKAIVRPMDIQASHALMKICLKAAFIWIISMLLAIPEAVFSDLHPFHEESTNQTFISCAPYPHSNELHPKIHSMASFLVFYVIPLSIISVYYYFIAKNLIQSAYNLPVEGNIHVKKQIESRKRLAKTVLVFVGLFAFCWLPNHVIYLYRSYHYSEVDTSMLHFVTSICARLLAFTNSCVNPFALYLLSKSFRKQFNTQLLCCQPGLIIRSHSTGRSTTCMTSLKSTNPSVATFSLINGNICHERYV

As usually defined, the IC50 is the point on the concentration scale where inhibition reaches its midpoint. A lower IC50 goes with greater potency in that assay. For the compound `O=C(NCCc1ccccc1)[C@@H]1c2ccccc2C(=O)N([C@H](CO)c2ccccc2)[C@H]1c1ccc(Cl)cc1Cl` [US10532048, Example 62], the IC50 came out at 18.3 nM.
